From patent publication US4254285A, “1-Hydroxymethyl-1-1-oxo prostane derivatives of the E and F series” (American Cyanamid Company, priority 1979, dated 1981)

Assays:
Assay type in all cases: in vivo
[1] = test system: bronchospasms elicited by acetylcholine; assay: Bronchodilator Activity (Konzett Assay), acetylcholine; details: Cavia porcellus; guinea pig, intravenous, spasmogen acetylcholine, three logarithmic cumulative doses; read-out: ED50
Description: (§1) The bronchodilator activity of some of the PGE compounds of this invention is determined in guinea pigs against bronchospasms elicited by intravenous injections of 5-hydroxytryptamine, histamine or acetylcholine by the Konzett procedure. [See J. Lulling, P. Lievens, F. El Sayed and J. Prignot, Arzneimittel-Forschung, 18, 995 (1968)].
(§2) In the Table B which follows, bronchodilator activity for representative compounds of this invention against one or more of the three spasmogenic agents is expressed as an ED50 determined from the results obtained with three logarithmic cumulative intravenous doses.

[2] = test system: bronchospasms elicited by 5-hydroxytryptamine; assay: Bronchodilator Activity (Konzett Assay), 5-hydroxytryptamine; details: Cavia porcellus; guinea pig, intravenous, spasmogen 5-hydroxytryptamine, three logarithmic cumulative doses; read-out: ED50
Description: as §1, §2

[3] = test system: stress-induced (immersion) ulcers; assay: Restraint--Immersion Stress Ulcers in the Rat (Wilson)
Description: Male "Sprague--Dawley Derived" rats (Locke--Erickson Laboratories, Maywood, Illinois) weighing 150 to 200 g, are fasted, and provided drinking water for 16 to 19 hours prior to the start of the study. At 0 time the rats are dosed orally with compound or vehicle, (approximately 0.5 ml) and then secured in a Bollman-type restraining cage. Five minutes after dosing, the animals are immersed (tail downward) to "shoulder level" into a 22° C. water bath for 100 minutes. At the end of this period, the animals are decapitated and their stomachs promptly excised with about 5 mm each of esophagus and duodenum.
With a blunt tipped scissor the stomach is opened along the greater curvature, starting at the tip of the rumen through the glandular mucosa into the pylorus and opening the bit of duodenum along its amesenteric border. Debris is removed from stomach by rinsing in saline at room temperature and gently blotting it with gauze or filter paper. The stomach is then spread out, mucosal surface upward on a 3×5 file card or similar material.
With an illuminated magnifier the lesions are counted (for total lesion count) and scored (for weighted score) after the method described by G. Osterloh, et al., Arzneimittel-Forschung, 16 (8a):901910, August 1966. The score for each lesion is given in the following table, modified from the paper.
Very large (area) non-perforating lesions are frequently seen. These are measured as so many 3 mm diameter ulcers and scored as multiples of #7.
Rats were dosed by gavage with compound or vehicle and submerged into a
22° C. water bath for 100 minutes. At the end of this period,
animals were sacrificed and their stomachs removed and scored for ulcers.

[4] = test system: bronchospasms elicited by histamine; assay: Bronchodilator Activity (Konzett Assay), histamine; details: Cavia porcellus; guinea pig, intravenous, spasmogen histamine, three logarithmic cumulative doses; read-out: ED50
Description: as §1, §2

[5] = test system: continuous respiratory spasm induced by pilocarpine; assay: Bronchodilator Activity (Pilocarpine Assay); details: Canis lupus familiaris, inhaled or nasal, dog, aerosol, 3.2 mg/ml
Description: The PGE compounds of this invention also have bronchodilator activity as determined in a test using dogs anesthetized, artificially ventilated and submitted to a continuous respiratory spasm induced by pilocarpine. Mongrel dogs of either sex weighing between 5 and 10 kg are used. They are premedicated with morphine HCl by subcutaneous injection at 1.5 mg/Kg. An intravenous perfusion of 5% (W/V) chloralose is started 1/2 hour after the morphine injection in such a way that 60 mg/Kg are administered within 15 minutes. After completion, a continuous perfusion of 10 mg/Kg hour is maintained throughout the experiment. The dogs are artificially ventilated by means of a Starling pump at a rate of 20 breaths/minute. The volume is adjusted according to the weight of the animal. [Kleinman and Radford, J. Appl. Physiol., 19, 360 (1964)]. All the measurements are made with the dogs positioned supine in a heated, V-shaped table. Curarization is obtained by succinylcholine chloride using a starting injection of 3 mg/Kg lasting 3 minutes, followed by a continuous perfusion of 0.1 mg/Kg/minute. The respiratory spasm is induced by a starting injection of 400 mcg/Kg of pilocarpine HCl lasting 5 minutes. An increase or decrease in the dose of pilocarpine HCl may occur as a function of the observed effect on airway's resistance. A 15 minute delay is observed before the start of a continuous perfusion of pilocarpine HCl at a dose of 4 mcg/Kg/minute to maintain a constant spasm during the test. A metallic cannula is inserted and fixed, after tracheotomy, into the upper part of the trachea. The two cephalic veins and the two femoral veins are catheterized to inject the various agents. The femoral artery is catheterized to measure the systemic blood pressure. An esophageal balloon (11 cm×2.5 cm) is inserted into the lower third of the oesophagus to measure the endothoracic pressure. The measurement of air flow is made with a […] pneumotachograph connected to the tracheal tube. The transpulmonary pressure is measured as follows: The tracheal cannula is equipped with a stainless steel axial tube (1.5 mm) which is closed at its distal end and projected 2.5 cm beyond the end of the cannula. Three holes with a diameter of one mm are pierced on this latter segment. This tube, which is used to measure the tracheal pressure, is connected to one of the two chambers of a Sanborn 267 B/C differential transducer. The other chamber is connected to the esophageal balloon by means of a polyethylene catheter of the same length and characteristics as the balloon's. The airway's resistance, expressed in cm of water/liter/second, is measured by subtracting from the electrical equivalent of the transpulmonary pressure, a voltage proportional to the flow so as to synchronize the pressure and volume signals on the oscilloscope [Mead and Whittenberger, J. Appl. Physiol, 5, 779 (1953)]. The test compounds are administered by an Aerosol® route. The micronebulizer of a Bird Mark 7 respirator is fitted on the metallic cannula just after the pneumotachograph. The "puff" of the test compound, in Aerosol® is driven by a 2 Kg/cm^2 pressure, allowed into the micronebulizer just during one inspiration cycle. The micronebulizer is fitted on the respiratory tube only during the "puff". It is weighed just before and just after administration to determine the amount of test compound administered.

gastric acid secretion = assay: Gastric Acid Secretion in the Dog Fistula; details: 10 μg/kg I.G.; for cumulative two-hour gastric secretion, acid: n = 6, control 17.2 ± 1.6; for cumulative two-hour gastric secretion, volume: n = 6, control 130 ± 11
Description: Three mongrel dogs (20-32 kg) were surgically prepared with stainless steel cannulae. These were inserted into the most dependent portion of the ventral stomach and exteriorized through the abdomen for the collection of gastric secretions. The dogs were trained to stand quietly in a Pavlov support and were conscious during subsequent secretory studies.
^a After a 26hour fast, gastric acid secretion was submaximally
stimulated, beginning 45 minutes after treatment, using a constant
intravenous infusion of histamine acid phosphate ([…]).
^b Each of three dogs was treated six to seven times with vehicle
(control) and one to three times with each compound; n is the number of
experiments conducted with each treatment.
^c Total secretion from 45-120 minutes following intragastric (I.G.)
administration of drugs or vehicle. Mean effects of treatment were
compared to control means by Student's t test. Compound A is […]

[6] = 5 min, 5 min. after drug administration
[7] = 0.5 h, 30 min. after drug administration
[8] = 1 h, 60 min. after drug administration

SMILES: CCCCC(C)(O)CC=CC1C(O)CC(=O)C1CCCCCCC(=O)CO (centres unmarked)
- ED50 [1]: 4.7 µg/kg
- ED50 [2]: 3 µg/kg
- % Reduction of ulcer score ([3]; 3 mg/Kg P.O.): 62%
- % Reduction of ulcer score ([3]; 16 mg/Kg P.O.): 85%
- % Reduction of ulcer score ([3]; 80 mg/Kg P.O.): 82%
- % Reduction of ulcer score ([3]; 200 mg/Kg P.O.): 67%
- % Reduction of ulcer score ([3]; 500 mg/Kg P.O.): 82%
- ED50 [4]: 0.943 µg/kg
- inhibition at 3200 µg/mL [5, 6]: 90%
- inhibition at 3200 µg/mL [5, 7]: 70%
- inhibition at 3200 µg/mL [5, 8]: 45%
- cumulative two-hour gastric secretion, acid (gastric acid secretion): 6.9 ± 2.8 mEq H^+
- cumulative two-hour gastric secretion, volume (gastric acid secretion): 59 ± 19 mL

SMILES: CCCCC(C)(O)CC=CC1C(O)CC(=O)C1CC=CCCCC(=O)CO (stereo not drawn) [1,9-dioxo-11α,16-dihydroxy-16-methyl-1-hydroxymethyl-5-cis-13-trans-prostadiene]
- ED50 [1]: 6.4 µg/kg
- ED50 [2]: 3.81 µg/kg
- % Reduction of ulcer score ([3]; 200 mg/Kg P.O.): 85%
- % Reduction of ulcer score ([3]; 500 mg/Kg P.O.): 95%
- ED50 [4]: 3 µg/kg
- inhibition at 3200 µg/mL [5, 6]: 90%
- inhibition at 3200 µg/mL [5, 7]: 90%
- inhibition at 3200 µg/mL [5, 8]: 70%
- cumulative two-hour gastric secretion, acid (gastric acid secretion): 7.5 ± 2.1 mEq H^+
- cumulative two-hour gastric secretion, volume (gastric acid secretion): 76 ± 16 mL
